# Measurements as given in patent US20260116868A1 (Arcus Biosciences, Inc., priority 2023, published 2026).
# Biological target: T1, Cbl-b (Homo sapiens, UniProt Q13191)
# T1 construct: biotin (biotinylated protein)
# Assay: Cbl-b probe displacement HTRF binding assay
# Settings: 0.4 nM Cbl-b, 150 nM BODIPY probe
# Summary of the method: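 Compound competes with BODIPY probe (150 nM) for biotinylated Cbl-b (0.4 nM) in HEPES/NaCl/Triton/TCEP/BSA buffer; 60 min preincubation, 15 min with probe, room temperature. Tb-streptavidin HTRF read; % displacement vs DMSO and no-protein controls, IC50 from four-parameter fit.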
# T1 sequence (Q13191 whole entry, species assumed): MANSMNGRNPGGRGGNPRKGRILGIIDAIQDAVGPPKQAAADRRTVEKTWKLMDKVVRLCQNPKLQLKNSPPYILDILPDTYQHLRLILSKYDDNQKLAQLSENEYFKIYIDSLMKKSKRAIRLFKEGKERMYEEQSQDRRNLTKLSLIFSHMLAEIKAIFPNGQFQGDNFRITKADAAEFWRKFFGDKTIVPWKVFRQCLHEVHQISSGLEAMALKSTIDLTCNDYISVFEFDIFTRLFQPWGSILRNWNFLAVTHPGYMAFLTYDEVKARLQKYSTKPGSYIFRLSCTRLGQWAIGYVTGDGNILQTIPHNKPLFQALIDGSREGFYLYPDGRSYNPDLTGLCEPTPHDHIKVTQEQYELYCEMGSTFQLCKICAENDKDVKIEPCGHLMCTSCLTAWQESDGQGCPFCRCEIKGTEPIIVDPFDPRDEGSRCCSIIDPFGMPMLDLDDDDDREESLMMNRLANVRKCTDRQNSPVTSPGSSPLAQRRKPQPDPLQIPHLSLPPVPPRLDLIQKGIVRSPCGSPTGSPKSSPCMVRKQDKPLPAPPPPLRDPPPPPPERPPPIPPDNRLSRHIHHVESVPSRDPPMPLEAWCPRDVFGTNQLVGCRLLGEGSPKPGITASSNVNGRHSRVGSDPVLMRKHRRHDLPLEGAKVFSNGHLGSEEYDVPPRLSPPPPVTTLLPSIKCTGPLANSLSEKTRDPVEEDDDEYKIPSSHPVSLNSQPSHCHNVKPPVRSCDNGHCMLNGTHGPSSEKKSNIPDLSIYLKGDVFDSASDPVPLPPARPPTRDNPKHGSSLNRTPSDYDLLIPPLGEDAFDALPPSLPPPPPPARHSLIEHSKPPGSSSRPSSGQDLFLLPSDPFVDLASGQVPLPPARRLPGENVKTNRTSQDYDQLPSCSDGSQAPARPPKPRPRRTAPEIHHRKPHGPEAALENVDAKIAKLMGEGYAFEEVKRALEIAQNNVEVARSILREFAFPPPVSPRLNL
row,IC50,SMILES
1,< 100 nM,COCCNCc1cc(C(=O)Nc2cc(-c3ccc(F)cc3C(=O)N3CC(F)C3)cc(C3CC3)n2)c(=O)n(C2CC2)c1 [Example 404]
2,< 100 nM,CC(C)Nc1cc(-c2c(F)cc(Cl)cc2C(=O)N2CC(F)(F)C2)cc(NC(=O)c2cc(CNC[C@@H]3CCCO3)cn(C3CC3)c2=O)n1 [Example 208]
3,< 100 nM,CO[C@@H](C)CNCc1cc(C(=O)Nc2cc(-c3ccc(OC(F)F)cc3C(=O)N3CC(F)(F)C3)cc(C3CC3)n2)c(=O)n(C2CC2)c1 [Example 321]
4,< 100 nM,"CO[C@@H](C)CNCc1cc(C(=O)Nc2cc(-c3ccc(Cl)cc3C(=O)N3CC(C)(F)C3)cc(C3CC3)n2)c(=O)n(C2CC2)c1 [Example 158, N-(4-{4-Chloro-2-[(3-fluoro-3-methyl-1-azetidinyl)carbonyl]phenyl}-6-cyclopropyl-2-pyridyl)-1-cyclopropyl-5-{[(S)-2-methoxypropylamino]methyl}-2-oxo-1,2-dihydronicotinamide]"
5,< 100 nM,"CO[C@@H](C)CNCc1cc(C(=O)Nc2cc(-c3ccc(Cl)cc3C(=O)N(C)C)cc(C3CC3)n2)c(=O)n(C2CC2)c1 [Example 161, N-{4-[4-Chloro-2-(N,N-dimethylcarbamoyl)phenyl]-6-cyclopropyl-2-pyridyl}-1-cyclopropyl-5-{[(S)-2-methoxypropylamino]methyl}-2-oxo-1,2-dihydronicotinamide]"
6,< 100 nM,CO[C@@H](C)CNCc1cc(C(=O)Nc2cc(-c3ccc(C#N)cc3C(=O)N3CC(F)(F)C3)cc(C3CC3)c2)c(=O)n(C2CC2)c1 [Example 393]
7,< 100 nM,"CO[C@@H](C)CNCc1cc(C(=O)Nc2cc(-c3ccc(C#N)cc3C(=O)N3CC(F)(F)C3)cc(OCC(F)F)n2)c(=O)n(C2CC2)c1 [Example 131, N-(4-{4-cyano-2-[(3,3-difluoro-1-azetidinyl)carbonyl]phenyl}-6-(2,2-difluoroethoxy)-2-pyridyl)-1-cyclopropyl-5-{[(S)-2-methoxypropylamino]methyl}-2-oxo-1,2-dihydronicotinamide]"
8,< 100 nM,COC[C@H](C)NCc1cc(C(=O)Nc2cc(-c3ccc(C#N)cc3C(=O)N3CC(F)(F)C3)cc(C3CC3)n2)c(=O)n(C)c1 [Example 171]
9,< 100 nM,CO[C@@H](C)CNCc1cc(C(=O)Nc2cc(-c3ccc(Cl)cc3C(=O)N3CC(F)(F)C3)cc(OCC(F)(F)F)n2)c(=O)n(C2CC2)c1 [Example 163]
10,< 100 nM,CC(C)Oc1cc(-c2ccc(OC(F)F)cc2C(=O)N2CC(F)(F)C2)cc(NC(=O)c2cc(CN[C@@H](C)C(C)C)cn(C)c2=O)n1 [Example 114]
11,< 100 nM,CC(C)Oc1cc(-c2ccc(OC(F)F)cc2C(=O)N2CC(F)C2)cc(NC(=O)c2cc(CNC[C@@H]3CCCO3)cn(C)c2=O)n1 [Example 297]
12,< 100 nM,O=C(Nc1cc(-c2ccc(Cl)cc2C(=O)N2CC(F)(F)C2)cc(C2CC2)n1)c1cc(CNCC2CC2)cn(C2CC2)c1=O [Example 406]
13,< 100 nM,"COc1ccc(-c2cc(NC(=O)c3cc(CNC[C@H](C)OC)cn(C4CC4)c3=O)nc(C3CC3)c2)c(C(=O)N2CC(F)(F)C2)c1 [Example 150, N-(6-Cyclopropyl-4-{2-[(3,3-difluoro-1-azetidinyl)carbonyl]-4-methoxyphenyl}-2-pyridyl)-1-cyclopropyl-5-{[(S)-2-methoxypropylamino]methyl}-2-oxo-1,2-dihydronicotinamide]"
14,< 100 nM,COc1ccc(-c2cc(NC(=O)c3cc(CNCC(C)C)cn(C4CC4)c3=O)nc(C3CC3)c2)c(C(=O)N2CC(F)C2)c1 [Example 284]
15,< 100 nM,CC(C)CNCc1cc(C(=O)Nc2cc(-c3c(F)cc(C#N)cc3C(=O)N3CC(F)(F)C3)cc(C3CC3)n2)c(=O)n(C2CC2)c1 [Example 230]
16,< 100 nM,COc1ccc(-c2cc(NC(=O)c3cc(CN[C@@H](CO)C4CCC4)cn(C4CC4)c3=O)nc(OC(C)C)c2)c(C(=O)N2CC(F)C2)c1 [Example 318]

row,IC50,SMILES
1,< 100 nM,CC(C)Oc1cc(-c2ccc(C#N)cc2C(=O)N2CC(F)(F)C2)cc(NC(=O)c2cc(CN[C@@H](C)C(C)C)cn(C)c2=O)n1 [Example 214]
2,< 100 nM,"COc1ccc(-c2cc(NC(=O)c3cc(CN[C@@H](C)[C@H](C)OC)cn(C4CC4)c3=O)nc(C3CC3)c2)c(C(=O)N2CC(F)(F)C2)c1 [Example 152, N-(6-Cyclopropyl-4-{2-[(3,3-difluoro-1-azetidinyl)carbonyl]-4-methoxyphenyl}-2-pyridyl)-1-cyclopropyl-5-{[(1S,2S)-2-methoxy-1-methylpropylamino]methyl}-2-oxo-1,2-dihydronicotinamide]"
3,< 100 nM,C[C@H](NCc1cc(C(=O)Nc2cc(-c3ccc(C#N)cc3C(=O)N3CC(F)(F)C3)cc(C3CC3)n2)c(=O)n(C)c1)[C@@H]1CCCO1 [Example 354]
4,< 100 nM,CO[C@@H](C)CNCc1cc(C(=O)Nc2cc(-c3ccc(Cl)cc3C(=O)N3CC(F)(F)C3)cc(NC(C)C)n2)c(=O)n(C2CC2)c1 [Example 217]
5,< 100 nM,CO[C@@H](C)CNCc1cc(C(=O)Nc2cc(-c3ccc(C#N)cc3C(=O)N3CC(F)C3)cc(OC(C)C)n2)c(=O)n(C)c1 [Example 265]
6,< 100 nM,"CO[C@@H](C)CNCc1cc(C(=O)Nc2cc(-c3c(F)cc(C#N)cc3C(=O)N3CC(F)(F)C3)cc(OC(C)C)n2)c(=O)n(C2CC2)c1 [Example 127, N-(4-{4-cyano-2-[(3,3-difluoro-1-azetidinyl)carbonyl]-6-fluorophenyl}-6-isopropoxy-2-pyridyl)-1-cyclopropyl-5-{[(S)-2-methoxypropylamino]methyl}-2-oxo-1,2-dihydronicotinamide]"
7,< 100 nM,CO[C@@H](C)CNCc1cc(C(=O)Nc2cc(-c3ccc(Cl)cc3C(=O)N3CC(F)(F)C3)cc(NC(C)C)n2)c(=O)n(C)c1 [Example 169]
8,< 100 nM,CCOc1cc(-c2ccc(C#N)cc2C(=O)N2CC(F)(F)C2)cc(NC(=O)c2cc(CNCC(C)C)cn(C3CC3)c2=O)n1 [Example 202]
9,< 100 nM,CO[C@@H](C)CNCc1cc(C(=O)Nc2cc(-c3c(F)cc(C#N)cc3C(=O)N3CC(F)(F)C3)cc(C3CC3)n2)c(=O)n(C2CC2)c1 [Example 224]
10,< 100 nM,CC(C)Oc1cc(-c2ccc(OC(F)F)cc2C(=O)N2CC(F)C2)cc(NC(=O)c2cc(CNC[C@@H]3CCCO3)cn(C3CC3)c2=O)n1 [Example 280]
11,< 100 nM,O=C(Nc1cc(-c2ccc(OC(F)F)cc2C(=O)N2CC(F)(F)C2)cc(OCC(F)F)n1)c1cc(CNC[C@@H]2COCCO2)cn(C2CC2)c1=O [Example 165]
12,< 100 nM,"COCCNCc1cc(C(=O)Nc2cc(-c3c(F)cc(Cl)cc3C(=O)N3CC(F)(F)C3)cc(C3CC3)n2)c(=O)n(C2CC2)c1 [Example 147, N-(4-{4-chloro-2-[(3,3-difluoro-1-azetidinyl)carbonyl]-6-fluorophenyl}-6-cyclopropyl-2-pyridyl)-1-cyclopropyl-5-[(2-methoxyethylamino)methyl]-2-oxo-1,2-dihydronicotinamide]"
13,< 100 nM,COCCNCc1cc(C(=O)Nc2cc(-c3c(F)cc(C#N)cc3C(=O)N3CC(F)(F)C3)cc(C3CC3)n2)c(=O)n(C2CC2)c1 [Example 237]
14,< 100 nM,CCNc1cc(-c2ccc(Cl)cc2C(=O)N2CC(F)C2)cc(NC(=O)c2cc(CNC[C@H](C)OC)cn(C3CC3)c2=O)n1 [Example 245]
15,< 100 nM,CCOc1cc(-c2ccc(Cl)cc2C(=O)N2CC(F)(F)C2)cc(NC(=O)c2cc(CN[C@@H](C)COC)cn(C3CC3)c2=O)n1 [Example 238]
